From patent US12030878B2 (BRISTOL-MYERS SQUIBB COMPANY, priority 2017, dated 2024)

What was measured:
Type in all cases: cell-based
human TLR9 = target: T1, human TLR9 (Homo sapiens, UniProt Q9NR96); assay: TLR9 inhibition reporter assay (HEK-Blue SEAP); conditions: HEK-Blue cells overexpressing human TLR9, stimulated with ODN2006 5 nM, 22 hour incubation
T1 construct: host or cells: HEK-Blue cells
T1 sequence (Q9NR96 26-1032): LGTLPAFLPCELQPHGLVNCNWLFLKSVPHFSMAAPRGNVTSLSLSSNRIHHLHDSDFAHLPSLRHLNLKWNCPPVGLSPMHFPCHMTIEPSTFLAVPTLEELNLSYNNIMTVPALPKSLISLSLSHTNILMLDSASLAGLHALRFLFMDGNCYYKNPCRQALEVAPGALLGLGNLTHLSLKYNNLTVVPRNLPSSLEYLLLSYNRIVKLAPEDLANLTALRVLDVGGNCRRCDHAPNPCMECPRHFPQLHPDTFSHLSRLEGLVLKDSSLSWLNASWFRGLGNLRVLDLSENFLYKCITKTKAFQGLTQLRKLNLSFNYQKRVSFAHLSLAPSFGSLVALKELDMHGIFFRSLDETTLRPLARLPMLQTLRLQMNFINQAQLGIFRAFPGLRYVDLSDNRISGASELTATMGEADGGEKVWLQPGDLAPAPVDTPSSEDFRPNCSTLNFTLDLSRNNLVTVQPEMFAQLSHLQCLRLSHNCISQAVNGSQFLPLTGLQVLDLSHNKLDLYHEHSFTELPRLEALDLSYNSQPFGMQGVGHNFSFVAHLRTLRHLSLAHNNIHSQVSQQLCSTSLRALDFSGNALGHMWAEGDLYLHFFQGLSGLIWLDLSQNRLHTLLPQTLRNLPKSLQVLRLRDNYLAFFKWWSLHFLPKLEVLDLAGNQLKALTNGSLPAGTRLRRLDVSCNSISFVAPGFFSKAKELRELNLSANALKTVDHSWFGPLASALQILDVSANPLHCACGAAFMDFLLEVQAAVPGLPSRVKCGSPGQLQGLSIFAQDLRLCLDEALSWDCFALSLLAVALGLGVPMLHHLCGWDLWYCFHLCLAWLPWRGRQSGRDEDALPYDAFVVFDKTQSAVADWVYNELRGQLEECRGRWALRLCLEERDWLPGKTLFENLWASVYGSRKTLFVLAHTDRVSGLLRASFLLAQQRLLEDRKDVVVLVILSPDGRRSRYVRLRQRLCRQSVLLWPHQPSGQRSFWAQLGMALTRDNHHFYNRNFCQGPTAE
Protocol: (§1) TLR7/8/9 Inhibition Reporter Assays
(§2) HEK-Blue™-cells (Invivogen) overexpressing human TLR7, TLR8 or TLR9 receptors were used for screening inhibitors of these receptors using an inducible SEAP (secreted embryonic alkaline phosphatase) reporter gene under the control of the IFN-β minimal promoter fused to five NF-κB and AP-1-binding sites. Briefly, cells are seeded into Greiner 384 well plates (15000 cells per well for TLR7, 20.000 for TLR8 and 25,000 for TLR9) and then treated with test compounds in DMSO to yield a final dose response concentration range of 0.05 nM-50 μM. After a 30 minute compound pre-treatment at room temperature, the cells are then stimulated with a TLR7 ligand (gardiquimod at a final concentration of 7.5 μM), TLR8 ligand (R848 at a final concentration of 15.9 μM) or TLR9 ligand (ODN2006 at a final concentration of 5 nM) to activate NF-κB and AP-1 which induce the production of SEAP. After a 22 hour incubation at 37° C., 5% CO2, SEAP levels are determined with the addition of HEK-Blue™ Detection reagent (Invivogen), a cell culture medium that allows for detection of SEAP, according to manufacturer's specifications. The percent inhibition is determined as the % reduction in the HEK-Blue signal present in wells treated with agonist plus DMSO alone compared to wells treated with a known inhibitor.

human TLR8 = target: T2, human TLR8 (Homo sapiens, UniProt Q9NR97); assay: TLR8 inhibition reporter assay (HEK-Blue SEAP); conditions: HEK-Blue cells overexpressing human TLR8, stimulated with R848 15.9 μM, 22 hour incubation
T2 construct: host or cells: HEK-Blue cells
T2 sequence (Q9NR97 27-1041): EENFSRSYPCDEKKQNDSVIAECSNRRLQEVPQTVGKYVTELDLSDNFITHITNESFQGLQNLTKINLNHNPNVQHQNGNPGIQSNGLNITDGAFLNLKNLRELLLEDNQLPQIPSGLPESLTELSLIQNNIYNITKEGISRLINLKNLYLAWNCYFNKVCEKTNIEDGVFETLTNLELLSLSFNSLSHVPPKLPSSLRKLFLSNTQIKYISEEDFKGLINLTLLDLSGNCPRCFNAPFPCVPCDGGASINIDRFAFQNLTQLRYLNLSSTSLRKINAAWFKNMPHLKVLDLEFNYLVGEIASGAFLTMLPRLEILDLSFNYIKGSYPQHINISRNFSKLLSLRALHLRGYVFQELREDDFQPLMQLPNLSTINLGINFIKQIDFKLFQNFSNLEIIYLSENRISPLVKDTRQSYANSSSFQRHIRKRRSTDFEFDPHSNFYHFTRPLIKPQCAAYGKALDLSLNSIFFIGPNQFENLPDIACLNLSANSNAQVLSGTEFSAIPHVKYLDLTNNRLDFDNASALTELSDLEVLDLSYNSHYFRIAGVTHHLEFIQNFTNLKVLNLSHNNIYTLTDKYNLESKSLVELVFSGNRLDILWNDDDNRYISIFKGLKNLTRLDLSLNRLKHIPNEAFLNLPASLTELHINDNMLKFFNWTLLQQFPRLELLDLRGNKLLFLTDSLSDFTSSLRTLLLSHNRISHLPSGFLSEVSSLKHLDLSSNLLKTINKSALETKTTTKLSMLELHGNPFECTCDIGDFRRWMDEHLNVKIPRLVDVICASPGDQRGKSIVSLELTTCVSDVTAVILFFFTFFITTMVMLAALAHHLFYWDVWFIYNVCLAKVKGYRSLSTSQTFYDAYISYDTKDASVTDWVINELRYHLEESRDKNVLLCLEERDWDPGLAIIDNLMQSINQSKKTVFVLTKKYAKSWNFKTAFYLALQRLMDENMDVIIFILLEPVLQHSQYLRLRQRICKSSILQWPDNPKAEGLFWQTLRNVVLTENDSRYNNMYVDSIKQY
Protocol: as §1, §2

human TLR7 = target: T3, human TLR7 (Homo sapiens, UniProt Q9NYK1); assay: TLR7 inhibition reporter assay (HEK-Blue SEAP); conditions: HEK-Blue cells overexpressing human TLR7, stimulated with gardiquimod 7.5 μM, 22 hour incubation
T3 construct: host or cells: HEK-Blue cells
T3 sequence (Q9NYK1 27-1049): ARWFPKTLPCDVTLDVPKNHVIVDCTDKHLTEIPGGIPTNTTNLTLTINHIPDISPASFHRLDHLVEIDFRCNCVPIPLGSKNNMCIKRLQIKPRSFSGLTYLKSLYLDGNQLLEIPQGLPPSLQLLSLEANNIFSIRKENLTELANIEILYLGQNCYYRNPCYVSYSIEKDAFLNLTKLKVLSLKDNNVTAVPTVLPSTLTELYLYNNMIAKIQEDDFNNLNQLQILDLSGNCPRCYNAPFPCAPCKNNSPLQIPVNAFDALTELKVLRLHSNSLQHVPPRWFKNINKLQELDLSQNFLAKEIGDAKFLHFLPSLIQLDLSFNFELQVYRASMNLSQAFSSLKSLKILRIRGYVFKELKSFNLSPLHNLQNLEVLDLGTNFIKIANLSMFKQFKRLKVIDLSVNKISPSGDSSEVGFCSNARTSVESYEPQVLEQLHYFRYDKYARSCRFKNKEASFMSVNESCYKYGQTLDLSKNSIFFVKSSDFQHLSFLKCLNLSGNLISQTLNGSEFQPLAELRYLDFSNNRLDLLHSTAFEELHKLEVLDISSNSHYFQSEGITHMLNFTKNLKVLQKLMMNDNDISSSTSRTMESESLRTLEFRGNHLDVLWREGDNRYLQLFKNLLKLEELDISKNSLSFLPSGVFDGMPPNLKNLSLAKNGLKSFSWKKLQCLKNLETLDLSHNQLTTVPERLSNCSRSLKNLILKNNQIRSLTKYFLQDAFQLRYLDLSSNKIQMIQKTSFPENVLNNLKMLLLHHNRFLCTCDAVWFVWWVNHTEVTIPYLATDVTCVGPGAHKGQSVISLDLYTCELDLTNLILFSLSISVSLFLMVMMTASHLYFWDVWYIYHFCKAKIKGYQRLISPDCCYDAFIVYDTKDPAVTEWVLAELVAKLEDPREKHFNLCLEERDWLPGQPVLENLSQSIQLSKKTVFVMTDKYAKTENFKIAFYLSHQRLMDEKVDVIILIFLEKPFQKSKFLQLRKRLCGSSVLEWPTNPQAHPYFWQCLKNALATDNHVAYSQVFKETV
Protocol: as §1, §2

| Structure (SMILES) | IC50 (human TLR9) | IC50 (human TLR8) | IC50 (human TLR7) |
| --- | --- | --- | --- |
| Cc1cc(-c2[nH]c3ccc(OC4CCC(OC5CCNCC5)CC4)cc3c2C(C)C)ccn1 (stereo not drawn) [Example 184, 3-isopropyl-2-(2-methylpyridin-4-yl)-5-((4-(piperidin-4-yloxy)cyclohexyl)oxy)-1H-indole] | 5.3 µM | 0.0546 µM | 0.0519 µM |
| Cc1cc(-c2[nH]c3ccc(OCC4CCN(CC(=O)N(C)C)CC4)cc3c2C(C)C)cc(C)n1 [Example 80, 2-(4-(((2-(2,6-dimethylpyridin-4-yl)-3-isopropyl-1H-indol-5-yl)oxy)methyl)piperidin-1-yl)-N,N-dimethylacetamide] | 0.398 µM | 0.0085 µM | 0.0077 µM |
| COc1ccc(-c2[nH]c3ccc(OCC(=O)NC4CN5CCC4CC5)cc3c2C(C)C)cc1OC (stereo not drawn) [Example 125, 2-((2-(3,4-dimethoxyphenyl)-3-isopropyl-1H-indol-5-yl)oxy)-N-((1s,4s)-quinuclidin-3-yl)acetamide] | 6.33 µM | 0.0444 µM | 0.019 µM |
| Cc1cc(-c2[nH]c3ccc(OCC(=O)N4CC5(CCNCC5)C4)cc3c2C(C)C)ccn1 [Example 141, 2-((3-isopropyl-2-(2-methylpyridin-4-yl)-1H-indol-5-yl)oxy)-1-(2,7-diazaspiro[3.5]nonan-2-yl)ethan-1-one] | 0.625 µM | 0.186 µM | 0.427 µM |
| Cc1c(-c2[nH]c3ccc(OCC4CN(C)C4)cc3c2C(C)C)cn2cnnc2c1C [Example 61, 6-(3-isopropyl-5-((1-methylazetidin-3-yl)methoxy)-1H-indol-2-yl)-7,8-dimethyl-[1,2,4]triazolo[4,3-a]pyridine] | 6.36 µM | 0.439 µM | 0.493 µM |
| Cc1cc(-c2[nH]c3ccc(O[C@@H]4CCNC4)cc3c2C(C)C)ccn1 [Example 157, (R)-3-isopropyl-2-(2-methylpyridin-4-yl)-5-(pyrrolidin-3-yloxy)-1H-indole] | 1.91 µM | 0.007 µM | 0.0087 µM |
| CCc1c(-c2ccnc(C)c2)[nH]c2ccc(OC3CCN(C)CC3)cc12 [Example 189, 3-ethyl-5-((1-methylpiperidin-4-yl)oxy)-2-(2-methylpyridin-4-yl)-1H-indole] | 1.08 µM | 0.0065 µM | 0.166 µM |
| COc1ccc(-c2[nH]c3ccc(OCC(=O)N[C@@H]4CCNC4)cc3c2C(C)C)cc1OC [Example 135, (R)-2-((2-(3,4-dimethoxyphenyl)-3-isopropyl-1H-indol-5-yl)oxy)-N-(pyrrolidin-3-yl)acetamide] | 1.82 µM | 0.0241 µM | 0.185 µM |

The next lines start with the values.

| IC50 (human TLR9) | IC50 (human TLR8) | IC50 (human TLR7) | Structure (SMILES) |
| --- | --- | --- | --- |
| 2.67 µM | 0.0031 µM | 0.0707 µM | Cc1cc(-c2[nH]c3ccc(OC4CCN(C(C)C)CC4)cc3c2C(C)C)ccn1 [Example 186, 3-isopropyl-5-((1-isopropylpiperidin-4-yl)oxy)-2-(2-methylpyridin-4-yl)-1H-indole] |
| 0.566 µM | 0.0192 µM | 0.4 µM | CCc1c(-c2ccnc(C)c2)[nH]c2ccc(O[C@H]3CCNC3)cc12 [Example 182, (S)-3-ethyl-2-(2-methylpyridin-4-yl)-5-(pyrrolidin-3-yloxy)-1H-indole] |
| 2.32 µM | 0.0256 µM | 0.0361 µM | COc1ccc(-c2[nH]c3ccc(OCC4CCNCC4)cc3c2C(C)C)cc1OC [Example 159, 2-(3,4-dimethoxyphenyl)-3-isopropyl-5-(piperidin-4-ylmethoxy)-1H-indole] |
| 0.26 µM | 0.137 µM | 0.315 µM | Cc1cc(-c2[nH]c3ccc(OCC(=O)N4CC5CNCC5C4)cc3c2C(C)C)ccn1 (stereo not drawn) [Example 145, 1-(hexahydropyrrolo[3,4-c]pyrrol-2(H)-yl)-2-((3-isopropyl-2-(2-methylpyridin-4-yl)-1H-indol-5-yl)oxy)ethan-1-one] |
| > 50 µM | 0.134 µM | 4.93 µM | Cc1cc(-c2[nH]c3ccc(OCc4ccc(N5CCOCC5)cc4)cc3c2C(C)C)ccn1 [Example 168, 4-(4-(((3-isopropyl-2-(2-methylpyridin-4-yl)-1H-indol-5-yl)oxy)methyl)phenyl)morpholine] |
| 2.48 µM | 0.001 µM | 0.0008 µM | Cc1cc(-c2[nH]c3ccc(OC4CCN(C(C)C)CC4)cc3c2C(C)C)cn2ncnc12 [Example 47, 6-(3-isopropyl-5-((1-isopropylpiperidin-4-yl)oxy)-1H-indol-2-yl)-8-methyl-[1,2,4]triazolo[1,5-a]pyridine] |
